ChEMBL document CHEMBL4507319 (2021)

Assays:
[1] = biological target: Mitogen-activated protein kinase 8 (Homo sapiens) (UniProt P45983); test: JNK1alpha1(h) Eurofins kinase panel; settings: Compound concentration 1.0 uM
[2] = biological target: Macrophage-stimulating protein receptor (Homo sapiens) (UniProt Q04912); test: Ron(h) Eurofins kinase panel; settings: Compound concentration 1.0 uM
[3] = biological target: Tyrosine-protein kinase Blk (Homo sapiens) (UniProt P51451); test: Blk(h) Eurofins kinase panel; settings: Compound concentration 1.0 uM
Sequence of Tyrosine-protein kinase Blk (Homo sapiens) (P51451 2-505 limits assumed): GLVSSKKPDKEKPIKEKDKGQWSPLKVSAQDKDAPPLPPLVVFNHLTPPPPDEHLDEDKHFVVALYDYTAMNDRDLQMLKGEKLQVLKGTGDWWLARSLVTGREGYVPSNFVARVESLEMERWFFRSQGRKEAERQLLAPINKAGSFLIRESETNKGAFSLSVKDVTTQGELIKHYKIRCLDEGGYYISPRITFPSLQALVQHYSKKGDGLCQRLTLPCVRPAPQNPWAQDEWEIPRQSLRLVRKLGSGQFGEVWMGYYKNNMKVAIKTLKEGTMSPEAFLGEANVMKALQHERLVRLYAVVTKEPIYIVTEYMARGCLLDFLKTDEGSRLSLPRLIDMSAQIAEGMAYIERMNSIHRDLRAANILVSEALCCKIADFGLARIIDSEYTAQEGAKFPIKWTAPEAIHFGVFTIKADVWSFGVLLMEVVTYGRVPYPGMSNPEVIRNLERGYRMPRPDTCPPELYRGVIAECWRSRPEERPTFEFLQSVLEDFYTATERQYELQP

OCI-Ly7 = test: Oci-Ly-7 cell line Proliferation assay; type: functional, Homo sapiens; settings: time 3 day
[4] = biological target: T1, Tyrosine-protein kinase ITK/TSK (Homo sapiens) (UniProt Q08881); test: Itk(h) Eurofins kinase panel; settings: Compound concentration 1.0 uM
T1 sequence (whole entry): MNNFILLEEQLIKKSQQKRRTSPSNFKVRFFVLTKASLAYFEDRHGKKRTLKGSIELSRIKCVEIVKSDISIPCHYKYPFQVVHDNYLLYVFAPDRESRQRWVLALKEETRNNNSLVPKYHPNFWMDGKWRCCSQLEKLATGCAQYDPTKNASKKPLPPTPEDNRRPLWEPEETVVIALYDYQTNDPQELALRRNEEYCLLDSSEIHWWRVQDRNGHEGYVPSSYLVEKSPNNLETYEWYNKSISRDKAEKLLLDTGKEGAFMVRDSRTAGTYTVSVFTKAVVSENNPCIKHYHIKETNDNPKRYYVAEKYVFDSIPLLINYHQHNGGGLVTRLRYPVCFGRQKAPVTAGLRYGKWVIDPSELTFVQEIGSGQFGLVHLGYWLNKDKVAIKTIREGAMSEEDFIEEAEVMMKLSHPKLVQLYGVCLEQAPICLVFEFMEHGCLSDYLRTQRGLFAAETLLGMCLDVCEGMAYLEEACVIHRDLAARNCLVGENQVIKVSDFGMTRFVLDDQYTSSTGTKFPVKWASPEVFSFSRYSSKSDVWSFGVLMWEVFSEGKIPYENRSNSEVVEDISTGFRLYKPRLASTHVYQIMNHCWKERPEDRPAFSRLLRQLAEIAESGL

[5] = biological target: Calcium/calmodulin-dependent protein kinase type II subunit gamma (Homo sapiens) (UniProt Q13555); test: CaMKIIgamma(h) Eurofins kinase panel; settings: Compound concentration 1.0 uM
Sequence of Calcium/calmodulin-dependent protein kinase type II subunit gamma (Homo sapiens) (Q13555 whole entry): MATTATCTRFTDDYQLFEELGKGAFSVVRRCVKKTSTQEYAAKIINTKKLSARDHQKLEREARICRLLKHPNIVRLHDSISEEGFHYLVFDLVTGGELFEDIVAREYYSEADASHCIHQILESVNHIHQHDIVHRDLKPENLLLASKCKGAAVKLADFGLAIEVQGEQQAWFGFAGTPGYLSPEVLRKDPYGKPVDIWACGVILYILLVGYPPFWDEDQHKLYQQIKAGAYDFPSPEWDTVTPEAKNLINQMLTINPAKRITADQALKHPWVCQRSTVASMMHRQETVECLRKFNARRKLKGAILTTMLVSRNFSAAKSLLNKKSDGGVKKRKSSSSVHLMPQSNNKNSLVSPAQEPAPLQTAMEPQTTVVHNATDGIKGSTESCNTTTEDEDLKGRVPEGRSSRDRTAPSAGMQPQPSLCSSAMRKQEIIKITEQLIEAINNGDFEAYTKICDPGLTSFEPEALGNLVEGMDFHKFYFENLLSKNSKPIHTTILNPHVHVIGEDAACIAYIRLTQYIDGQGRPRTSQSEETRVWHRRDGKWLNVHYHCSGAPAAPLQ

[6] = biological target: T2, Mitogen-activated protein kinase kinase kinase 7 (Homo sapiens) (UniProt O43318); test: TAK1(h) Eurofins kinase panel; settings: Compound concentration 1.0 uM
T2 sequence (whole entry): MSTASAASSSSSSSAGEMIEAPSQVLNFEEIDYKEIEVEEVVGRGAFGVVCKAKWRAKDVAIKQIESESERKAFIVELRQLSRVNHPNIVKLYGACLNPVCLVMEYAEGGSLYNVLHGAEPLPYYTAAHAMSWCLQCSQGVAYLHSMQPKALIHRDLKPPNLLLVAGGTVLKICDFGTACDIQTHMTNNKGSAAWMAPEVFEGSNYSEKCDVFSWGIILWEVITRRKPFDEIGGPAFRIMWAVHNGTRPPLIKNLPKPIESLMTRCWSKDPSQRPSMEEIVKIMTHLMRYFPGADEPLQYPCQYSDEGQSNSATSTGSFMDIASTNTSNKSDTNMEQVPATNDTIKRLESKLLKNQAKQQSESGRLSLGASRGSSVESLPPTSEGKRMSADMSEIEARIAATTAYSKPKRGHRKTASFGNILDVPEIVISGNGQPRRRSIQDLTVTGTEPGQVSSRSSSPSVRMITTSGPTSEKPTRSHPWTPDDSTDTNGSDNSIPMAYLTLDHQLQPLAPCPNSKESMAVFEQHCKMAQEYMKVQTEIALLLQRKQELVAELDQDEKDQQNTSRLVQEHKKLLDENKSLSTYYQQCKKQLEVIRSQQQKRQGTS

[7] = biological target: Serine/threonine-protein kinase 35 (Homo sapiens) (UniProt Q8TDR2); test: CLIK1(h) Eurofins kinase panel; settings: Compound concentration 1.0 uM
Sequence of Serine/threonine-protein kinase 35 (Homo sapiens) (Q8TDR2 whole entry): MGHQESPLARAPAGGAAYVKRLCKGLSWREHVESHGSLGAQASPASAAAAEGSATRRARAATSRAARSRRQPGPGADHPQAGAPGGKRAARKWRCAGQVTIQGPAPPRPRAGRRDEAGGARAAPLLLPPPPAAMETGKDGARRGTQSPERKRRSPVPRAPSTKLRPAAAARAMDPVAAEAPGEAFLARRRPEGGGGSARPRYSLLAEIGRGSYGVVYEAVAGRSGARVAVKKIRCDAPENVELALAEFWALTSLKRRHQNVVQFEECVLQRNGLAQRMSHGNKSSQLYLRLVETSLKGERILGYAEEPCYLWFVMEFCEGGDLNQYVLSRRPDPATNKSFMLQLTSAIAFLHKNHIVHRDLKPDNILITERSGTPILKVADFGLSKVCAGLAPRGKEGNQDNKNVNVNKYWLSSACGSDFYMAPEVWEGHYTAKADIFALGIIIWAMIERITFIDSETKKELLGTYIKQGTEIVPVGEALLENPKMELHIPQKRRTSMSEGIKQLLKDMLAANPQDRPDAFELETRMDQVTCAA

AMO1 = test: AMO-1 cell line Proliferation assay; type: functional, Homo sapiens; settings: time 3 day
[8] = biological target: T3, Interleukin-1 receptor-associated kinase 4 (Homo sapiens) (UniProt Q9NWZ3); test: IRAK4(h) Eurofins kinase panel; settings: Compound concentration 1.0 uM
T3 sequence (whole entry): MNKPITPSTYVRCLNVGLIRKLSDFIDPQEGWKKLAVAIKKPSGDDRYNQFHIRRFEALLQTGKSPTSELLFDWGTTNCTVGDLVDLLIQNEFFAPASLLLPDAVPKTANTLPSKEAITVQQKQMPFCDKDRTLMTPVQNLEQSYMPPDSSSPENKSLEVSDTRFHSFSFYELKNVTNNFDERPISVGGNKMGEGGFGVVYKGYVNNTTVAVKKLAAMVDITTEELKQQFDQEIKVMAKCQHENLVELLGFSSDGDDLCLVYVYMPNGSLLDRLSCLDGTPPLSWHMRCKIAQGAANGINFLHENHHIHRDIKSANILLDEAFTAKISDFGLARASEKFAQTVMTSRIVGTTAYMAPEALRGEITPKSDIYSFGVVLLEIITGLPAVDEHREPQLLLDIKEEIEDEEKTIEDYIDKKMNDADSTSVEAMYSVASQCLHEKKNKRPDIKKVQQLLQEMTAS

[9] = biological target: Dual specificity protein kinase CLK3 (Homo sapiens) (UniProt P49761); test: CLK3(h) Eurofins kinase panel; settings: Compound concentration 1.0 uM
[10] = biological target: Serine/threonine-protein kinase A-Raf (Homo sapiens) (UniProt P10398); test: A-Raf(h) Eurofins kinase panel; settings: Compound concentration 1.0 uM
Sequence of Serine/threonine-protein kinase A-Raf (Homo sapiens) (P10398 whole entry): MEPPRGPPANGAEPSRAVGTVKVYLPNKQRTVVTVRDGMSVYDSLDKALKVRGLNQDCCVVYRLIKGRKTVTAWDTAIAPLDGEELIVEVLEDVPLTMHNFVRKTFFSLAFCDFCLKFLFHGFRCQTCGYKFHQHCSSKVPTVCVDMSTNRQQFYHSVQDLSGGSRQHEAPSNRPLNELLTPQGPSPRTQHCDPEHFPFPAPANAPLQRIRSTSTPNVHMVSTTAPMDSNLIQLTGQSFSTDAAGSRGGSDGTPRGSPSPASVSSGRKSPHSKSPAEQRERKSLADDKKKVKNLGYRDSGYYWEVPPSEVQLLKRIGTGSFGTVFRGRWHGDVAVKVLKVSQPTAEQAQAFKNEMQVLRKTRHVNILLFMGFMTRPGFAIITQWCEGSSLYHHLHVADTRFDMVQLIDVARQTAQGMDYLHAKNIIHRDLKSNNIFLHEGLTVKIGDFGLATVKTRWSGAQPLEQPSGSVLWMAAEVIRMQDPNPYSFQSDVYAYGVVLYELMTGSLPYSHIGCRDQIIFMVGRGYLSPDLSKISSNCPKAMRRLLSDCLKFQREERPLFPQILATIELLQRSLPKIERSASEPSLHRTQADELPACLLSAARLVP

[11] = biological target: Ribosomal protein S6 kinase alpha-4 (Homo sapiens) (UniProt O75676); test: MSK2(h) Eurofins kinase panel; settings: Compound concentration 1.0 uM
Sequence of Ribosomal protein S6 kinase alpha-4 (Homo sapiens) (O75676 whole entry, looked up): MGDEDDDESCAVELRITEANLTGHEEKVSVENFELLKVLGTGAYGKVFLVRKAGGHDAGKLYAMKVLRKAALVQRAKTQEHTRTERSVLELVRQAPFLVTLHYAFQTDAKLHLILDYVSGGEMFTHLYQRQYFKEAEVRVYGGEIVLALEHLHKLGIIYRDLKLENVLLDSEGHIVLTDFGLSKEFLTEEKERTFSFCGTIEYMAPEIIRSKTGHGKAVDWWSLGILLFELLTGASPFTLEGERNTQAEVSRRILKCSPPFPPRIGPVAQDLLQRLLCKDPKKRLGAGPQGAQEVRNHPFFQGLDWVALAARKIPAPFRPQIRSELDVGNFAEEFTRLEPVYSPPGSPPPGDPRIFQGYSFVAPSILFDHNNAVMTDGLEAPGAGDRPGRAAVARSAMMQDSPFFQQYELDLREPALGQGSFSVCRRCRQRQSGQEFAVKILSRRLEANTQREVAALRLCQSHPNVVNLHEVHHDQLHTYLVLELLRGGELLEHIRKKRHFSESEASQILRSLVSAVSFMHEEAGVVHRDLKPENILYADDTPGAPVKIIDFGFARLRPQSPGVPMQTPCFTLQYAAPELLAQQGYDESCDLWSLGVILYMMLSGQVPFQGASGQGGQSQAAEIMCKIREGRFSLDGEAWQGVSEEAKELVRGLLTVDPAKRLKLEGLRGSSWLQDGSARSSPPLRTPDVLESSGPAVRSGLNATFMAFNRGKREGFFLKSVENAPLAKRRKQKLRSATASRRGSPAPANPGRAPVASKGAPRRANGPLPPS

HeLa = test: HeLa cell line Proliferation assay; type: functional, Homo sapiens; settings: time 3 day
[12] = biological target: Tyrosine-protein kinase FRK (Homo sapiens) (UniProt P42685); test: PTK5(h) Eurofins kinase panel; settings: Compound concentration 1.0 uM
Sequence of Tyrosine-protein kinase FRK (Homo sapiens) (P42685 whole entry): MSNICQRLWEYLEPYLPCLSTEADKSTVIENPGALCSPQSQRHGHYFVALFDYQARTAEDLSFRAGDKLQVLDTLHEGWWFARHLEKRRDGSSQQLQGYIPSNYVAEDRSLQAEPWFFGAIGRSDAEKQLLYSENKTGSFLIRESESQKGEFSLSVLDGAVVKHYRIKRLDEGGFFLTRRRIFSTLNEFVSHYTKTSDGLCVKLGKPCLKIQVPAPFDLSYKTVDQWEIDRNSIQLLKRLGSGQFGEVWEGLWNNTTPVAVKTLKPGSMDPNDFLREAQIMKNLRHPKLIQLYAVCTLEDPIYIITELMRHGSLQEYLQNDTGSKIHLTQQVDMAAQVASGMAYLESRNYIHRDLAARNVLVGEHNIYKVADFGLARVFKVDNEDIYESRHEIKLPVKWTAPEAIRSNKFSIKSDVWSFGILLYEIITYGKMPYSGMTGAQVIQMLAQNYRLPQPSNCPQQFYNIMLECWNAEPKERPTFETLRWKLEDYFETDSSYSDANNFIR

[13] = biological target: Calcium/calmodulin-dependent protein kinase type 1G (Homo sapiens) (UniProt Q96NX5); test: CaMKIgamma(h) Eurofins kinase panel; settings: Compound concentration 1.0 uM

Sequence of Macrophage-stimulating protein receptor (Homo sapiens) (Q04912 25-304 limits assumed): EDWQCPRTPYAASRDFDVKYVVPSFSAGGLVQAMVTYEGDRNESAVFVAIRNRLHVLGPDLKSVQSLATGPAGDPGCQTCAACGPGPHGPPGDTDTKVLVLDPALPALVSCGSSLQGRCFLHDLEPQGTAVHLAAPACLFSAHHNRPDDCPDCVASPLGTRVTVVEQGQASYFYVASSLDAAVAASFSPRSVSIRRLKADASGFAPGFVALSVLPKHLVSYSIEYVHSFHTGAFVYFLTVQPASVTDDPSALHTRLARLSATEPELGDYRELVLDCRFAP
Sequence of Macrophage-stimulating protein receptor (Homo sapiens) (Q04912 310-1400 limits assumed): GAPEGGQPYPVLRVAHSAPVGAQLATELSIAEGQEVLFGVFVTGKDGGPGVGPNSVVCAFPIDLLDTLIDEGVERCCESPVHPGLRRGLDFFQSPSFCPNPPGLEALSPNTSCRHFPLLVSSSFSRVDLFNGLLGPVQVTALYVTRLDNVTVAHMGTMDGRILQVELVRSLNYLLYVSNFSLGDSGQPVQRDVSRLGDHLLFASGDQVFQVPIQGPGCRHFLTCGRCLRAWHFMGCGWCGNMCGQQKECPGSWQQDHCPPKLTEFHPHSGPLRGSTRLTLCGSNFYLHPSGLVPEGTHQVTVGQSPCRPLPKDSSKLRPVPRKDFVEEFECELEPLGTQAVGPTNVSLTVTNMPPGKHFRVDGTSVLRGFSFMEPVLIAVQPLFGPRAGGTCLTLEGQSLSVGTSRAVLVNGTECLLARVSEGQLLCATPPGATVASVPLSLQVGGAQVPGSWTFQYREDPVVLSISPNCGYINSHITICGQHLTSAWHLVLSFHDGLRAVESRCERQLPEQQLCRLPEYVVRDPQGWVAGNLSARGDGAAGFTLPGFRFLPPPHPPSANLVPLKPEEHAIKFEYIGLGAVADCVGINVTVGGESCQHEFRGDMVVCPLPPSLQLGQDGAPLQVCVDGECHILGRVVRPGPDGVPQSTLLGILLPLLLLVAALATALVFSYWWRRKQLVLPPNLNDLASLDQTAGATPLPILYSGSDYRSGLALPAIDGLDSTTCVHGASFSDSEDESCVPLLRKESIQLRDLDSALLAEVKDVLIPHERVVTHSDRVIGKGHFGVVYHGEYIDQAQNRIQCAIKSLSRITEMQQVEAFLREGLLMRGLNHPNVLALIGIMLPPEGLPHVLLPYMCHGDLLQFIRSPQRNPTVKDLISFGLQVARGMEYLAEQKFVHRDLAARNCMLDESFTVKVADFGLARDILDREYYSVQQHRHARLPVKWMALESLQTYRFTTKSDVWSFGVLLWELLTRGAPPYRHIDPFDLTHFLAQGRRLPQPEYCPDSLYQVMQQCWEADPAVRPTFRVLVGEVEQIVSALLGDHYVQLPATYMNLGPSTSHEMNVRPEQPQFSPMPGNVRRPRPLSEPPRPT

In the case of `CCc1ccccc1C(=O)Nc1n[nH]c2c(C)c(F)c(C3C(C#N)=C(C)N(C)C(C)=C3C#N)cc12` [BAY-3827], the % residual kinase activity [1] is reported as 72%, the % residual kinase activity [2] is reported as 102% and the % residual kinase activity [3] is reported as 111%. For the same molecule, the “Cell Proliferation IC50” value (OCI-Ly7) was 12.2 µM, the % residual kinase activity [4] was 106% and the % residual kinase activity [5] was 79%. The % residual kinase activity [6] was 104%, the % residual kinase activity [7] was 80% and the “Cell Proliferation IC50” value (AMO1) was >33 µM. For the same molecule, the % residual kinase activity [8] was 103%, the % residual kinase activity [9] was 109% and the % residual kinase activity [10] was 78%. The % residual kinase activity [11] was 27%, the “Cell Proliferation IC50” value (HeLa) was 25.7 µM and the % residual kinase activity [12] was 91%. The % residual kinase activity [13] was 92%.
